Experimental data published in article PMC3583578 (Oncology Reports, 2012).

How the values were obtained:
[1] = system: 26S protease (chymotrypsin, trypsin- and caspase-like activities); settings: three proteolytic activities, dose-dependent; cited from earlier work
[2] = system: TNFα-induced NF-κB activation; assay: Luciferase-based in cellulo NF-κB reporter assay; assay type: cell-based, human; settings: K562 cells after transfection

Row | Compound | 26S protease inhibition activity (in words) [1] | Cytotoxicity at concentrations which inhibited NF-κB activation (in words) [2]
1 | O=C(/C=C/c1ccccc1)c1ccc(O)cc1 [Chalcone 7, 4′-Hydroxychalcone] | inhibition activity | 
2 | COc1cccc(/C=C/C(=O)c2ccccc2O)c1OC [Chalcone 16, 2,3-Dimethoxy-2′-hydroxychalcone] |  | cytotoxic
